Results as given in patent publication EP0429522B1, “PHOSPHOSUGAR-BASED ANTI-INFLAMMATORY AND/OR IMMUNOSUPPRESSIVE DRUGS” (THE AUSTRALIAN NATIONAL UNIVERSITY, priority 1988, dated 1990).

Columns and labels:
[1] = system: Delayed-Type Hypersensitivity (DTH); assay: Delayed-type hypersensitivity (DTH) footpad swelling after sheep red blood cell challenge; format: in vivo, C57Bl mice; details: 24 hours after challenge; 0.15mg i/p per injection, 7 injections at approx. 3½ hour intervals
Method: C57Bl mice were sensitised by i.v. injection 10⁵ of washed sheep red blood cells. 5 days later they were challenged in the right hind footpad with SRBC. Each mouse was given a 0.25ml injection i/p at the same time of either saline, mannose-6-phosphate or the 1,2,3,4-tetraacetate of mannose-6-phosphate and all injections were repeated a further 6 times at approx. 3½ hour intervals. The dose in each injection of mannose-6- phosphate was 0.15mg and of 1,2,3,4-tetra-O-acetyl derivative of mannose-6-phosphate was also 0.15mg. At 24 hours after challenge the DTH swelling was measured.

[2] = system: Adoptively Transferred EAE; assay: Inhibition of adoptively transferred EAE (clinical signs), phosphosugar delivered by subcutaneous mini-osmotic pumps; format: in vivo, Lewis rats; details: for Disease Severity (%Control): product of mean clinical score and mean length disease; for inhibition of EAE (result in words): summary of Tables I, III and IV
Method: In this Example, a number of phosphosugars and one phospho-polysaccharide were tested for their ability to inhibit development of EAE in rats. (All phosphosugars tested are commercially available and were obtained from Sigma Chemical Co., St. Louis, MO, U.S.A.). Experimental details are included in the footnotes to the Tables setting out the test results.
Thus, although 7/10 animals treated with mannose-6-phosphate developed some clinical signs of disease (Table III) the severity of these disease symptoms was extremely mild compared with untreated animals, i.e., <10% disease severity of controls when clinical scores and duration of disease are examined. In this sense, the mannose-6-phosphate data in Tables I and III are almost identical. […]
In these experiments, details of which were as in Table I, the number of cells transferred was 25x10⁶/rat, while the dose of compound administered was 10mg/rat delivered over a 7 day period by mini-osmotic pumps, commencing on day 3 after cell transfer.

[3] = system: Passive Adjuvant Arthritis; assay: Suppression of passive adjuvant arthritis (foot size); format: in vivo, (DA x Lew)Fl rats; details: 6mg/rat/day by miniosmotic pumps for 14 days
Method: (DA x Lew)Fl rats were immunized with M.butyricum in light mineral oil given in each foot. Ten days later spleens were removed and incubated as single cell suspension tissue culture medium in + 5µg/ml ConA for 75 hrs. Cells were harvested, washed and transferred i.v. at 65 x 10⁶ cells/rat into (DA x Lew)F recipients.
Treated rats were implanted on the day they received cells with miniosmotic pumps which delivered 6mg/rat/day of mannose-6- phosphate for 14 days. Control rats were sham operated. The results are shown in Table VII as % of pre-cell injection foot size. {Average for group; n=4 (mannose-6-phosphate); n=6 (control)}.

EAE = assay: Histological analysis of spinal cord inflammatory lesions in EAE rats; format: in vivo; details: for No.Lesions: lower thoracic-upper lumbar spinal cord sections, treated as in Table I; for No.Lesions / Lesions/section: 9 days after cell transfer; for Lesions/section: spinal cord sections
Excerpt: Such data are consistent with the view that the sugars are inhibiting entry of leukocytes into the CNS.

[4] = Table III, experimental details as in Table I
[5] = Table II, dose 10 mg over 7 days
[6] = Table II, dose 20 mg over 7 days
[7] = Table II, dose 40 mg over 7 days

Compound: 1,2,3,4-tetra-O-acetyl derivative of mannose-6-phosphate
- reduction of DTH swelling as compared with the saline controls [1]: 91.5%

Compound: 6-phospho-mannose-α(1-3)-{mannose-α-(1-3)}₂-mannose-α-(1-2)-mannose [Pentasaccharide]
- EAE/Total ([2]; Table VI, 25x10⁶ cells/rat, 10mg/rat over 7 days by mini-osmotic pumps from day 3): 1/5

Compound: OC[C@H]1OC(O)[C@@H](O)[C@@H](O)[C@@H]1O (stereo partly drawn) [D-mannose, reference compound]
- Mean Clinical Score [2, 4]: 2.9
- Mean Day Onset [2, 4]: 5.2
- Mean Length Disease [2, 4]: 4.4 days
- No.with EAE/Total [2, 4]: 5/5
- Disease Severity (%Control) ([2]; Table III): 84.5%
- inhibition of EAE (result in words) [2]: little or no effect on disease progression

Compound: O=C(COP(=O)(O)O)[C@@H](O)[C@H](O)[C@H](O)COP(=O)(O)O [Fructose-1,6-diphosphate, fructose-1,6-diphosphate]
- Mean Clinical Score [2, 4]: 2.4
- Mean Day Onset [2, 4]: 5.4
- Mean Length Disease [2, 4]: 3.4 days
- No.with EAE/Total [2, 4]: 5/5
- Disease Severity (%Control) ([2]; Table III): 54.0%
- inhibition of EAE (result in words) [2]: partially inhibitory

Compound: O=C(COP(=O)(O)O)[C@@H](O)[C@H](O)[C@H](O)CO [Fructose-1-phosphate, fructose-1-phosphate]
- Mean Clinical Score [2, 4]: 1.2
- Mean Day Onset [2, 4]: 5.5
- Mean Length Disease [2, 4]: 1.6 days
- No.with EAE/Total [2, 4]: 3/5
- Disease Severity (%Control) ([2]; Table III): 12.6%
- inhibition of EAE (result in words) [2]: as effective as mannose-6-phosphate at inhibiting disease

Compound: O=C(CO)[C@@H](O)[C@H](O)[C@H](O)COP(=O)(O)O [Fructose-6-phosphate]
- Mean Clinical Score [2, 4]: 1.6
- Mean Day Onset [2, 4]: 6.0
- Mean Length Disease [2, 4]: 2.4 days
- No.with EAE/Total [2, 4]: 4/5
- Disease Severity (%Control) ([2]; Table III): 25.4%
- inhibition of EAE (result in words) [2]: comparatively effective inhibitor of EAE

Compound: O=P(O)(O)OC[C@H]1OC(O)[C@H](O)[C@@H](O)[C@H]1O (some centres unmarked) [Galactose-6-phosphate, galactose-6-phosphate]
- Mean Clinical Score [2, 4]: 2.0
- Mean Day Onset [2, 4]: 5.2
- Mean Length Disease [2, 4]: 3.0 days
- No.with EAE/Total [2, 4]: 5/5
- Disease Severity (%Control) ([2]; Table III): 40.5%
- inhibition of EAE (result in words) [2]: partially inhibitory

Compound: O=P(O)(O)OC[C@H]1OC(O)[C@H](O)[C@@H](O)[C@@H]1O (some centres unmarked) [Glucose-6-phosphate, glucose-6-phosphate]
- Mean Clinical Score [2, 4]: 2.0
- Mean Day Onset [2, 4]: 5.4
- Mean Length Disease [2, 4]: 3.8 days
- No.with EAE/Total [2, 4]: 5/5
- Disease Severity (%Control) ([2]; Table III): 50.3%
- inhibition of EAE (result in words) [2]: partially inhibitory

Compound: O=P(O)(O)OC[C@H]1OC(O)[C@@H](O)[C@@H](O)[C@@H]1O (some centres unmarked) [Mannose-6-phosphate, mannose-6-phosphate]
- reduction of DTH swelling as compared with the saline controls [1]: 52.5%
- Mean Length Disease ([2]; Table I, 40 mg/rat over 7 days): 0 days
- Mean Day Onset ([2]; Table I, 40 mg/rat over 7 days, s.c. pumps from day 3): 0
- Mean Clinical Score ([2]; Table I, 40 mg/rat over 7 days, score 0-5): 0
- No.with EAE/Total ([2]; Table I, 30 x 10⁶ ConA activated EAE effector cells, 40 mg/rat over 7 days, s.c. pumps from day 3): 0/8
- Mean Clinical Score [2, 5]: 1.8
- Mean Day Onset [2, 5]: 5.0
- Mean Length Disease [2, 5]: 3.3
- No.with EAE/Total [2, 5]: 4/4
- Disease Severity (%Control) ([2]; Table II, dose 10 mg over 7 days, listed as Mannose-6-Phosphate): 37.7%
- Disease Severity (%Control) ([2]; Table II, dose 10 mg over 7 days, listed as mannose-6-phosphate): 37.7%
- Mean Clinical Score [2, 6]: 1.5
- Mean Day Onset [2, 6]: 5.0
- Mean Length Disease [2, 6]: 3.0
- No.with EAE/Total [2, 6]: 4/4
- Disease Severity (%Control) [2, 6]: 28.6%
- Mean Clinical Score [2, 7]: 0.3
- Mean Day Onset [2, 7]: 5.0
- Mean Length Disease [2, 7]: 0.7
- No.with EAE/Total [2, 7]: 1/3
- Disease Severity (%Control) [2, 7]: 1.7%
- Mean Clinical Score [2, 4]: 0.9
- Mean Day Onset [2, 4]: 6.0
- Mean Length Disease [2, 4]: 1.5 days
- No.with EAE/Total [2, 4]: 7/10
- Disease Severity (%Control) ([2]; Table III): 8.9%
- Disease Severity (%Control) ([2]; Table III, listed as mannose-6-phosphate): < 10%
- inhibition of EAE (result in words) [2]: totally inhibited development of disease
- % of pre-cell injection foot size ([3]; Day 4, group average n=4): 97.3%
- % of pre-cell injection foot size ([3]; Day 6, n=4): 105.8%
- % of pre-cell injection foot size ([3]; Day 7, n=4): 102.8%
- % of pre-cell injection foot size ([3]; Day 9, n=4): 108.4%
- % of pre-cell injection foot size ([3]; Day 11, n=4): 107.6%
- % of pre-cell injection foot size ([3]; Day 14, n=4): 117.4%
- CNS lesions (result in words) (EAE; text summary of Table V): No lesions were detected
- No.Lesions (EAE; treated rat 1): 0
- Lesions/section (EAE; treated rat 1): 0
- No.Lesions (EAE; treated rat 2): 0
- Lesions/section (EAE; treated rat 2): 0

Compound: Glucose-1-phosphate
- Mean Clinical Score [2, 4]: 3.0
- Mean Day Onset [2, 4]: 5.2
- Mean Length Disease [2, 4]: 3.8 days
- No.with EAE/Total [2, 4]: 5/5
- Disease Severity (%Control) ([2]; Table III): 75.5%
- inhibition of EAE (result in words) [2]: little or no effect on disease progression
